# Source: ChEMBL document CHEMBL6083179, “Glucagon-like peptide-1 analogs: Miracle drugs are blooming?” (Eur J Med Chem, 2024)
# pIC50: −log10 of the molar value.
# Columns and labels:
# Glucagon-1 [1] = target: T1, Glucagon-1 (Xenopus laevis, UniProt O42143); assay: Inhibition of Xenopus laevis GLP-1A (1 to 37 residues)
# T1 sequence (O42143 whole entry): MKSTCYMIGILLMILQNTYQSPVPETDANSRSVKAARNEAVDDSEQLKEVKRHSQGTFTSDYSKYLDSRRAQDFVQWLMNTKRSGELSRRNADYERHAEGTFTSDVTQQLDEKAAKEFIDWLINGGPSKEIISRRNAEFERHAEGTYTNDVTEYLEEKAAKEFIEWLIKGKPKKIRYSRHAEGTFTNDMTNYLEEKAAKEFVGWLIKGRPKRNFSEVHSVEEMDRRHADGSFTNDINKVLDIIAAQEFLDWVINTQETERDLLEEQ
# Glucagon-1 [2] = target: T1, Glucagon-1; assay: Inhibition of Xenopus laevis GLP-1B (1 to 32 residues)
# Glucagon-1 [3] = target: T1, Glucagon-1; assay: Inhibition of Xenopus laevis GLP-1C (1 to 30 residues)
# [4] = Inhibition of Ornithorhynchus anatinus GLP-1
molecule,measurement,setting,value
CC[C@H](C)[C@H](NC(=O)[C@H](CC(C)C)NC(=O)[C@H](Cc1c[nH]c2ccccc12)NC(=O)[C@H](CC(=O)O)NC(=O)[C@@H](NC(=O)[C@H](Cc1ccccc1)NC(=O)[C@H](CCC(=O)O)NC(=O)[C@H](CCCCN)NC(=O)[C@H](C)NC(=O)[C@H](C)NC(=O)[C@H](CCCCN)NC(=O)[C@H](CCC(=O)O)NC(=O)[C@H](CC(=O)O)NC(=O)[C@H](CC(C)C)NC(=O)[C@H](CCC(N)=O)NC(=O)[C@H](CCC(N)=O)NC(=O)[C@@H](NC(=O)[C@@H](NC(=O)[C@H](CC(=O)O)NC(=O)[C@H](CO)NC(=O)[C@@H](NC(=O)[C@H](Cc1ccccc1)NC(=O)[C@@H](NC(=O)CNC(=O)[C@H](CCC(=O)O)NC(=O)[C@H](C)NC(=O)[C@@H](N)Cc1c[nH]cn1)[C@@H](C)O)[C@@H](C)O)C(C)C)[C@@H](C)O)[C@@H](C)CC)C(=O)N[C@@H](CC(N)=O)C(=O)NCC(=O)NCC(=O)N1CCC[C@H]1C(=O)N[C@@H](CO)C(=O)N[C@@H](CCCCN)C(=O)N[C@@H](CCC(=O)O)C(=O)N[C@H](C(=O)N[C@H](C(=O)N[C@@H](CO)C(=O)O)[C@@H](C)CC)[C@@H](C)CC,pIC50,Glucagon-1 [1],7.90
CC[C@H](C)[C@H](NC(=O)[C@H](CC(C)C)NC(=O)[C@H](Cc1c[nH]c2ccccc12)NC(=O)[C@H](CCC(=O)O)NC(=O)[C@@H](NC(=O)[C@H](Cc1ccccc1)NC(=O)[C@H](CCC(=O)O)NC(=O)[C@H](CCCCN)NC(=O)[C@H](C)NC(=O)[C@H](C)NC(=O)[C@H](CCCCN)NC(=O)[C@H](CCC(=O)O)NC(=O)[C@H](CCC(=O)O)NC(=O)[C@H](CC(C)C)NC(=O)[C@H](Cc1ccc(O)cc1)NC(=O)[C@H](CCC(=O)O)NC(=O)[C@@H](NC(=O)[C@@H](NC(=O)[C@H](CC(=O)O)NC(=O)[C@H](CC(N)=O)NC(=O)[C@@H](NC(=O)[C@H](Cc1ccc(O)cc1)NC(=O)[C@@H](NC(=O)CNC(=O)[C@H](CCC(=O)O)NC(=O)[C@H](C)NC(=O)[C@@H](N)Cc1c[nH]cn1)[C@@H](C)O)[C@@H](C)O)C(C)C)[C@@H](C)O)[C@@H](C)CC)C(=O)N[C@@H](CCCCN)C(=O)NCC(=O)N[C@@H](CCCCN)C(=O)N1CCC[C@H]1C(=O)N[C@@H](CCCCN)C(=O)O,pIC50,Glucagon-1 [2],8.54
H-HAEGTFTNDMTNYLEEKAAKEFVGWLIKGRPK-OH,pIC50,Glucagon-1 [3],7.36
H-HFDGVYTDYFSRYLEEKATNEFIDWLLKGQE-OH,pIC50,[4],8.13
H-HSEGTFTNDVTRLLEEKATSEFIAWLLKGLE-OH,pIC50,[4],8.13
